According to US8420657B2 (Novartis AG, priority 2008, dated 2013):
Read-outs that look alike come from different tables or passages of the source.

Columns and labels:
Format in all cases: biochemical
[1] = biological target: T1, cKit (Homo sapiens, UniProt P10721); test: cKit LanthaScreen TR-FRET kinase phosphorylation assay; conditions: recombinant kinase domain
T1 construct: using the recombinant domains of cMet, cKit, ALK and PDGFRalpha kinases
Experimental: (§1) The compounds are assayed in an antibody based kinase phosphorylation assay using the recombinant domains of cMet, cKit, ALK and PDGFRalpha kinases and a generic phospho-tyrosine peptide substrate. LanthaScreen™ is the detection of Time-Resolved Fluorescence Resonance Energy Transfer (TR-FRET) using lanthanide chelates to measure interactions between various binding partners. In a TR-FRET kinase assay, a long-lifetime lanthanide donor species is conjugated to an antibody that specifically binds to a phosphorylated product of a kinase reaction that is labeled with a suitable acceptor fluorophore. This antibody-mediated interaction brings the lanthanide donor and the acceptor into proximity such that resonance energy transfer can take place, resulting in a detectible increase in FRET. The LanthaScreen is run at ambient temperature and terminated by the addition of stop solution, followed by Tb-labeled P-20 antibody. After incubating in the dark, the plates are transferred to a fluorescence reader for counting. The effect of compound on the enzymatic activity is in all assays obtained from the linear progress curves and determined from one reading (end point measurement).

[2] = biological target: T2, GST-JAK2(808-1132) (Homo sapiens, UniProt O60674); test: JAK2 kinase assay (Caliper mobility shift, LabChip 3000)
T2 construct: GST-JAK2(808-1132); purchased Invitrogen (Carlsbad, USA) #4288
In short: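 Recombinant GST-JAK2(808-1132) kinase domain with FITC-labelled JAK3tide peptide substrate and ATP; 60 min at 30 °C, EDTA stop. Substrate/product ratio read by microfluidic mobility shift; compounds at 8 final concentrations, 10 to 0.003 μM.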

[3] = biological target: T3, ALK (Homo sapiens, UniProt Q9UM73); test: ALK LanthaScreen TR-FRET kinase phosphorylation assay; conditions: recombinant kinase domain
T3 construct: using the recombinant domains of cMet, cKit, ALK and PDGFRalpha kinases
Experimental: as §1

[4] = biological target: T4, PDGFRalpha (Homo sapiens, UniProt P16234); test: PDGFRalpha LanthaScreen TR-FRET kinase phosphorylation assay; conditions: recombinant kinase domain, read-out: PDGFRa/IC50
T4 construct: using the recombinant domains of cMet, cKit, ALK and PDGFRalpha kinases
Experimental: as §1

[5] = biological target: T5, cMet (Homo sapiens, UniProt P08581); test: cMet LanthaScreen TR-FRET kinase phosphorylation assay; conditions: recombinant kinase domain
T5 construct: using the recombinant domains of cMet, cKit, ALK and PDGFRalpha kinases
Experimental: as §1

T1 sequence (P10721 589-937 limits assumed): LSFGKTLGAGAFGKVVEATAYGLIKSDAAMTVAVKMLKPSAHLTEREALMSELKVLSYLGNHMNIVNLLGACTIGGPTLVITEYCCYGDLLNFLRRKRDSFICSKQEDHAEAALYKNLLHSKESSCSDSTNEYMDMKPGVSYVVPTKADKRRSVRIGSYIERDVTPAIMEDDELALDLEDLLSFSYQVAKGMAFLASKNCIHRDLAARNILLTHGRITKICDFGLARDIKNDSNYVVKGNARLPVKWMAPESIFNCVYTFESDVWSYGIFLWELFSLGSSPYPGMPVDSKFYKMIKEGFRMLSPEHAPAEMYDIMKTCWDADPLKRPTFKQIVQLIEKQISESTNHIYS
T2 sequence (O60674 808-1132): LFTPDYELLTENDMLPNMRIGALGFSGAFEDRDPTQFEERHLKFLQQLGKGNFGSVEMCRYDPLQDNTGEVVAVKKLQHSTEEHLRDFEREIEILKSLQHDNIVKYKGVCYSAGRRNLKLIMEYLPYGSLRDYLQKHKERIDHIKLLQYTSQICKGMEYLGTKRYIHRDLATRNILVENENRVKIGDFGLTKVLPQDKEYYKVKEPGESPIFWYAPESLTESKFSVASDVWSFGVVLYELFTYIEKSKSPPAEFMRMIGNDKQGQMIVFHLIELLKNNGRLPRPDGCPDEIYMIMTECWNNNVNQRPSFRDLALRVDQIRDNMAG
T4 sequence (P16234 593-954 limits assumed, species assumed): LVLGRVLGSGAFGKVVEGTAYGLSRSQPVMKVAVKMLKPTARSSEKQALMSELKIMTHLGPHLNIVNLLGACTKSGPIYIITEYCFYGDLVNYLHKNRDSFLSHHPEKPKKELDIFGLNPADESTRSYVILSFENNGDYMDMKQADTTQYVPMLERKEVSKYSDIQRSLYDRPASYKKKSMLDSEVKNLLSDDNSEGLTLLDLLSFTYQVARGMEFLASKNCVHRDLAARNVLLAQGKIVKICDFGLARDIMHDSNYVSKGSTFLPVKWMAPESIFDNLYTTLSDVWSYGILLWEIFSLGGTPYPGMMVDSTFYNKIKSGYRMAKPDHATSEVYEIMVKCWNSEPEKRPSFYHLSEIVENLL
T5 sequence (P08581 1078-1345 limits assumed): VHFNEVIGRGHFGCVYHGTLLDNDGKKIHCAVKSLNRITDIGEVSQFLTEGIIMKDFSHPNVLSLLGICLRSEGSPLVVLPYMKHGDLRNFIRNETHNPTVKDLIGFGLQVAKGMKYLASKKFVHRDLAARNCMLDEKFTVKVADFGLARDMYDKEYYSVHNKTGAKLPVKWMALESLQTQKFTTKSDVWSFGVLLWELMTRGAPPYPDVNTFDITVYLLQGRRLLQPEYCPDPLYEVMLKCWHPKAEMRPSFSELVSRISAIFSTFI
T3 sequence (Q9UM73 1116-1392 limits assumed, species assumed): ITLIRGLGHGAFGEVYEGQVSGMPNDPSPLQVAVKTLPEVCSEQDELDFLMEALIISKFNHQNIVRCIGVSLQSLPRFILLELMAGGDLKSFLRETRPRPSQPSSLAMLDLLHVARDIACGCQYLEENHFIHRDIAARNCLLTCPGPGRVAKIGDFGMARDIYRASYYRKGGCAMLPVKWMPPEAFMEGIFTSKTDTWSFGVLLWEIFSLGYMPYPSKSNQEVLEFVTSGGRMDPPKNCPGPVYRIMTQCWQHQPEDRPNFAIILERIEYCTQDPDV

SMILES | IC50 [1] [µM] | IC50 [2] [nM] | IC50 ([2]; Table 3) [nM] | IC50 [3] [µM] | IC50 [4] [µM] | IC50 [5] [µM]
CC(C)Oc1ccc(Nc2ncc3ccn(-c4ccc(C#N)cc4)c3n2)cc1 [Example 96, 4-[2-(4-Isopropoxy-phenylamino)-pyrrolo[2,3-d]pyrimidin-7-yl]-benzonitrile] | > 10 | 48.5 | 48.5 | > 10 | > 10 | > 10
COc1cc(Nc2ncc3ccn(-c4ccc(C(=O)N5CCOCC5)c(F)c4)c3n2)ccc1F [Example 151, {2-Fluoro-4-[2-(4-fluoro-3-methoxy-phenylamino)-pyrrolo[2,3-d]pyrimidin-7-yl]-phenyl}-morpholin-4-yl-methanone] | > 10 | 5.7 | 5.7 | > 10 | > 10 | > 10
COCc1ccc(Nc2ncc3ccn(-c4cc(F)c(CN5CCS(=O)(=O)CC5)c(F)c4)c3n2)cc1 [Example 184, {7-[4-(1,1-Dioxido-thiomorpholin-4-ylmethyl)-3,5-difluoro-phenyl]-7H-pyrrolo[2,3-d]pyrimidin-2-yl}-(4-methoxymethyl-phenyl)-amine] | > 10 | < 3 | < 3 | > 10 | > 10 | > 10
CN1CCN(C(=O)c2cccc(Nc3ncc4ccn(-c5cc(F)c(CN6CCOCC6)c(F)c5)c4n3)c2)CC1 [Example 203, {3-[7-(3,5-Difluoro-4-morpholin-4-ylmethyl-phenyl)-7H-pyrrolo[2,3-d]pyrimidin-2-ylamino]-phenyl}-(4-methyl-piperazin-1-yl)-methanone] | 4.7 | 7.4 | 6.4 | > 10 | > 10 | 6.9
Cc1ccc(Nc2ncc3ccn(-c4ccc(C(=O)N5CCOCC5)cc4)c3n2)cn1 [Example 238, {4-[2-(6-Methyl-pyridin-3-ylamino)-pyrrolo[2,3-d]pyrimidin-7-yl]-phenyl}-morpholin-4-yl-methanone] | > 10 | 11.1 | 11.1 | > 10 | 6.6 | 8.2
Cc1ccc(Nc2ncc3ccn(-c4ccc(C(=O)N5CCN(CCO)CC5)cc4)c3n2)cc1C [Example 300, {4-[2-(3,4-Dimethyl-phenylamino)-pyrrolo[2,3-d]pyrimidin-7-yl]-phenyl}-[4-(2-hydroxy-ethyl)-piperazin-1-yl]-methanone] | 3.4 | 17.5 | 17.5 | > 10 | 7.7 | > 10
Cn1cc(Nc2ncc3ccn(-c4ccc(CC(=O)N5CCOCC5)cc4)c3n2)cn1 [Example 301, 2-{4-[2-(1-Methyl-1H-pyrazol-4-ylamino)-pyrrolo[2,3-d]pyrimidin-7-yl]-phenyl}-1-morpholin-4-yl-ethanone] | 4.75 | < 3 | < 3 | > 10 | 5.6 | 3.6
Cc1cc(Nc2ncc3ccn(-c4ccc(C(=O)N5CCOCC5)c(F)c4)c3n2)nn1C [Example 311, {4-[2-(1,5-Dimethyl-1H-pyrazol-3-ylamino)-pyrrolo[2,3-d]pyrimidin-7-yl]-2-fluoro-phenyl}-morpholin-4-yl-methanone] | > 10 | 31 | 31 | > 10 | > 10 | > 10
Cc1ccc(Nc2ncc3ccn(-c4cc(F)c(CN5CCOCC5)c(F)c4)c3n2)cc1CN1CCNCC1 [Example 332, [7-(3,5-Difluoro-4-morpholin-4-ylmethyl-phenyl)-7H-pyrrolo[2,3-d]pyrimidin-2-yl]-(4-methyl-3-piperazin-1-ylmethyl-phenyl)-amine] | 1.55 | ≤ 3 | – | 9.05 | 6.7 | 7.57
Fc1cc(-n2ccc3cnc(Nc4ccnc(CN5CCNCC5)c4)nc32)cc(F)c1CN1CCOCC1 [Example 372, [7-(3,5-Difluoro-4-morpholin-4-ylmethyl-phenyl)-7H-pyrrolo[2,3-d]pyrimidin-2-yl]-(2-piperazin-1-ylmethyl-pyridin-4-yl)-amine] | 5.7 | 4.7 | 4.7 | > 10 | > 10 | > 10
C[C@@H]1CN(c2ccc(Nc3ncc4ccn(-c5ccc(NS(C)(=O)=O)cc5)c4n3)cn2)C[C@H](C)N1 [Example 380, N-(4-{2-[6-(cis-3,5-Dimethyl-piperazin-1-yl)-pyridin-3-ylamino]-pyrrolo[2,3-d]pyrimidin-7-yl}-phenyl)-methanesulfonamide] | 1.7 | 3.2 | 3.2 | > 10 | 5.3 | 5.4
Cc1ccc(Nc2ncc3ccn(-c4cc(F)c(CN5CCNC(=O)C5)c(F)c4)c3n2)cc1CN1CCNCC1 [Example 382, 4-{2,6-Difluoro-4-[2-(4-methyl-3-piperazin-1-ylmethyl-phenylamino)-pyrrolo[2,3-d]pyrimidin-7-yl]-benzyl}-piperazin-2-one] | 1.1 | 3.5 | 3.5 | > 10 | 7.7 | 2.4
CN1CCN(c2ccc(Nc3ncc4ccn(-c5cc(F)c(CN6CCS(=O)(=O)CC6)c(F)c5)c4n3)nc2)CC1 [Example 440, {7-[4-(1,1-Dioxido-thiomorpholin-4-ylmethyl)-3,5-difluoro-phenyl]-7H-pyrrolo[2,3-d]pyrimidin-2-yl}-[5-(4-methyl-piperazin-1-yl)-pyridin-2-yl]-amine] | > 10 | 3.2 | 3.2 | > 10 | > 10 | > 10
COCc1c(F)cc(-n2ccc3cnc(Nc4ccc(N5CCN(C)CC5)nc4)nc32)cc1F [Example 446, [7-(3,5-Difluoro-4-methoxymethyl-phenyl)-7H-pyrrolo[2,3-d]pyrimidin-2-yl]-[6-(4-methyl-piperazin-1-yl)-pyridin-3-yl]-amine] | 2.65 | 4.3 | 4.3 | > 10 | 7.45 | 6
CC1(C)NCCN(c2cc(Nc3ncc4ccn(-c5cc(F)c(CN6CCOCC6)c(F)c5)c4n3)ccn2)C1=O [Example 503, 1-{4-[7-(3,5-Difluoro-4-morpholin-4-ylmethyl-phenyl)-7H-pyrrolo[2,3-d]pyrimidin-2-ylamino]-pyridin-2-yl}-3,3-dimethyl-piperazin-2-one] | 9.5 | ≤ 3 | < 3 | > 10 | > 10 | 6.1
